Source: US4248880A, “Treatment of gastric ulcers with naphthimidazole derivatives” (Hoffmann-La Roche Inc., priority 1977, dated 1981)

How the values were obtained:
[1] = system: stress-induced gastric ulcers; experiment: inhibition of the formation of stress-induced gastric ulcers in rats (water bath); assay type: in vivo; settings: Rattus norvegicus, po, 6 h; female rats 140 to 160 g; per os; water bath 22.5° C. for six hours; 10 rats per dosage; Probit method; read-out: ED50 (effective dosage at which 50% of the rats are protected against stress-induced ulcers)
Protocol: After six hours in the water, the animals were sacrificed and the incidence of ulcers noted. The ED50, that is, the dosage at which 50% of the 10 rats utilized per dosage are protected against stress-induced ulcers by the test compound was then determined according to the Probit method.

LD50 in the mouse = settings: in vivo, po, per os
gastric acid secretion = experiment: inhibition of 4-methylhistamine-stimulated gastric acid secretion in the conscious Heidenhain pouch dog; assay type: in vivo; settings: Canis lupus familiaris, oral, 4-methylhistamine dihydrochloride infusion i.v., read-out: effective therapeutic dosage (per os amount causing 60-80% inhibition of acid secretion produced by 4-methylhistamine)
Description: A part of the stomach fundus of dogs is separated from the remaining stomach in the form of a pouch according to the Heidenhain technique described by Rudick et al in J. Surgical Research, vol. 7, pp 383-398 (1967). The pouch is fitted with a steel canula conducted externally through the abdominal wall and the operation is allowed to heal. Utilizing a conscious dog prepared as above, gastric secretion is stimulated by an infusion of 4-methylhistaminedihydrochloride (40 μ/kg per hr., i.v.) which selectively stimulates histamine H2 receptors. When volumes of fifteen minute samples of gastric secretion and pH levels appear constant, the test substance is administered orally and samples again taken. […] In the context of this procedure, an effective therapeutic dosage may be defined as the amount of test substance administered per os which causes an inhibition of from 60-80% of the acid secretion produced by the administration of 4-methylhistamine.

Q: With `c1ccc(CSc2nc3cc4ccccc4cc3[nH]2)nc1` [2-[(2-pyridylmethyl)thio]-1H-naphth[2,3-d]imidazole] as the molecule, how does the ED50 [1] read?
A: The ED50 was 12 mg/kg.

Q: And the LD50 (LD50 in the mouse)?
A: Its LD50 is > 5000 mg/kg.

Q: What about the ED (60-80) (gastric acid secretion) of the same molecule?
A: The ED (60-80) was ~3 mg/kg.

Q: Which results are given for `Cc1ccc(CSc2nc3cc4ccccc4cc3[nH]2)nc1` [2-/[(5-methyl-2-pyridyl)-methyl]thio/-1H-naphth[2,3-d]imidazole]?
A: ED50 [1]: 31 mg/kg; LD50 (LD50 in the mouse): 8000 mg/kg; ED (60-80) (gastric acid secretion): ~3 mg/kg
